Literature values in patent publication US20240285702A1, “Compositions comprising a cannabinoid and uses thereof” (Cannabotech Ltd., priority 2021, published 2024).
Values after ≈ are worked out from the molar mass of the structure shown.

For `C=C(C)[C@@H]1CCC(C)=C[C@H]1c1c(O)cc(CCCCC)cc1O` [CBD, 2-[(1R,6R)-6-isopropenyl-3-methylcyclohex-2-en-1-yl]-5-pentylbenzene-1,3-diol], the “Log P” value is listed as 5.8 and the water solubility is listed as 0.7 µg/mL (≈ 2.23 µM).
